This passage reports K0.5 results from article PMC12633397 (bioRxiv, 2025).

SMILES strings stand for the structures.

The experiment concerns the target T1, esVHPO (Enhygromyxa salina, UniProt A0A0C2CTX7).
T1 sequence (A0A0C2CTX7 1-528): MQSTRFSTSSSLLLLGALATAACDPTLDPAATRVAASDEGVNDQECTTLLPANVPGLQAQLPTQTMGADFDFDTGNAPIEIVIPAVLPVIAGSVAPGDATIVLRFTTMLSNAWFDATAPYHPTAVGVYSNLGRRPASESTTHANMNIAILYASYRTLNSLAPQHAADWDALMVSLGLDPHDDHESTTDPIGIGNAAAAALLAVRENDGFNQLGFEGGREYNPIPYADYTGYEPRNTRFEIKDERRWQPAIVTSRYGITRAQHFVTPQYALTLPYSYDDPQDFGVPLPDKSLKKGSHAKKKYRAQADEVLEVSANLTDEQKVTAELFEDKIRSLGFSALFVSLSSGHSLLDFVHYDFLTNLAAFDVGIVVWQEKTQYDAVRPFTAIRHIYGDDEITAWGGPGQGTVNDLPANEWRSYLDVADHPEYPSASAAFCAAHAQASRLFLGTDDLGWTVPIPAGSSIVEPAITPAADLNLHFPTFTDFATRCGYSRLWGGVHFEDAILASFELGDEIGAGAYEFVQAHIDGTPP
Nature of the experiment: UPLC-MS of Br-MHQ formation, steady-state kinetics. In kind it is biochemical. The settings on record: 1 mM H2O2, 20 mM KBr, 100 μM Na3VO4, 20 mM HEPES-KOH, 10% glycerol, 28 °C; Hill fit, positive cooperativity; labelled compound (deuterated).

With `Cc1cc(=O)c2ccccc2[nH]1` [C3-deuterated MHQ], the K0.5 result is listed as “The steady state kinetics for C3-Deuterated-MHQ (D-MHQ) was performed precisely as for undeuterated MHQ”.
